This is an account of results in paper PMC3445516 (PLoS ONE, 2012).

What all share (test): Ambit kinase profiling, competition binding
In one test the target is T1, PAK4 (Homo sapiens, UniProt O96013).
T1 construct: purchased Ambit Biosciences (KINOMEscan)
Here is the method:
(§1) Also included in the kinase profile are four isoforms of PKC (δ, ε, η, θ) and eight isoforms of CAMKs (CAMKIα, δ, γ; CAMKIIα, β, δ, γ; CAMK4).
(§2) The global kinase profiling experiment was performed by Ambit Biosciences.

Another test addresses T2, GAK (Homo sapiens, UniProt O14976).
T2 construct: purchased Ambit Biosciences (KINOMEscan)
T2 sequence (O14976 1-1311): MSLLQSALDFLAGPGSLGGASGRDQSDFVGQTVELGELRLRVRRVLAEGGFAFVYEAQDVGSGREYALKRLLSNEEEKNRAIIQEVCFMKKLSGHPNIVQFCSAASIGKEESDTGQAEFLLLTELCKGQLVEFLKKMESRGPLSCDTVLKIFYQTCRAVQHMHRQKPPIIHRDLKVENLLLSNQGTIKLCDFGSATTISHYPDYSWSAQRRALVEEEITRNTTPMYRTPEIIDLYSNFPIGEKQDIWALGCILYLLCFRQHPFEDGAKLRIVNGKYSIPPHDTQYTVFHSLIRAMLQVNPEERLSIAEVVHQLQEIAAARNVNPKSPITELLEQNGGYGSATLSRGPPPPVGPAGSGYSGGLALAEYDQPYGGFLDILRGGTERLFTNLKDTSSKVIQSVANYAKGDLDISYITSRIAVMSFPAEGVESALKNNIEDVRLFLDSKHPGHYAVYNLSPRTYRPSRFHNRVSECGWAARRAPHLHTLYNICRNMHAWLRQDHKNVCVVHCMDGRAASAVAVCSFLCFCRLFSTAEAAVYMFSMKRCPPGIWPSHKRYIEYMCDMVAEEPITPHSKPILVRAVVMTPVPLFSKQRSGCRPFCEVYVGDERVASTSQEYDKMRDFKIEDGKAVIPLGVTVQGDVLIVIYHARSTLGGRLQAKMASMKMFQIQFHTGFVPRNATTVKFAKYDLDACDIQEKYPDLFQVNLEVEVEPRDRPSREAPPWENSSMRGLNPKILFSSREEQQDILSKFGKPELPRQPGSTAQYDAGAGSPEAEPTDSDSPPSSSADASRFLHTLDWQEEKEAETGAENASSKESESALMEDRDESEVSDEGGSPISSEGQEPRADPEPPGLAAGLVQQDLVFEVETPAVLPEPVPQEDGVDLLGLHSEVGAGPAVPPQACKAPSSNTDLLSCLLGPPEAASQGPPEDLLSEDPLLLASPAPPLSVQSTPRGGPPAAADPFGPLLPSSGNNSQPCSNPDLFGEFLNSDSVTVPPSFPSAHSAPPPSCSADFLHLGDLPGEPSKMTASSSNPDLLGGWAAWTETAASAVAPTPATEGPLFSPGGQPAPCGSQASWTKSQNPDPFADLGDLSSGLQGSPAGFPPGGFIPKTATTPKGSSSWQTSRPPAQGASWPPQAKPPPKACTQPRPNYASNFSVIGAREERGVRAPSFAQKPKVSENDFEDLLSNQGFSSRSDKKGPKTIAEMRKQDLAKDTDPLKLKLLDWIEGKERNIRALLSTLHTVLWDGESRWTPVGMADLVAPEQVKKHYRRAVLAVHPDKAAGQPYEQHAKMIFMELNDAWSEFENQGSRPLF
The procedure:
as §1, §2

Another test has as its target T3, DDR1 (Homo sapiens, UniProt Q08345).
T3 construct: purchased Ambit Biosciences (KINOMEscan)
Here is the method: as §1, §2

In another test the target is T4, YANK2 (Homo sapiens, UniProt Q9NY57).
T4 construct: purchased Ambit Biosciences (KINOMEscan)
Here is the method:
as §1, §2

In the next test the target is T5, ERK1 (Homo sapiens, UniProt P27361).
T5 construct: purchased Ambit Biosciences (KINOMEscan)
The procedure:
as §1, §2

Another test addresses T6, BRAF(V600E) (Homo sapiens, UniProt P15056, V600E).
T6 construct: purchased Ambit Biosciences (KINOMEscan)
Here is the method:
as §1, §2

The next test deals with T7, CSK (Homo sapiens, UniProt P41240).
T7 construct: purchased Ambit Biosciences (KINOMEscan)
Particulars: for % Competition: 10 µM. The procedure: as §1, §2

Another test addresses T8, TGFBR2 (Homo sapiens, UniProt P37173).
T8 construct: purchased Ambit Biosciences (KINOMEscan)
Here is the method: as §1, §2

A further test deals with T9, EPHA1 (Homo sapiens, UniProt P21709).
T9 construct: purchased Ambit Biosciences (KINOMEscan)
T9 sequence (P21709 26-976): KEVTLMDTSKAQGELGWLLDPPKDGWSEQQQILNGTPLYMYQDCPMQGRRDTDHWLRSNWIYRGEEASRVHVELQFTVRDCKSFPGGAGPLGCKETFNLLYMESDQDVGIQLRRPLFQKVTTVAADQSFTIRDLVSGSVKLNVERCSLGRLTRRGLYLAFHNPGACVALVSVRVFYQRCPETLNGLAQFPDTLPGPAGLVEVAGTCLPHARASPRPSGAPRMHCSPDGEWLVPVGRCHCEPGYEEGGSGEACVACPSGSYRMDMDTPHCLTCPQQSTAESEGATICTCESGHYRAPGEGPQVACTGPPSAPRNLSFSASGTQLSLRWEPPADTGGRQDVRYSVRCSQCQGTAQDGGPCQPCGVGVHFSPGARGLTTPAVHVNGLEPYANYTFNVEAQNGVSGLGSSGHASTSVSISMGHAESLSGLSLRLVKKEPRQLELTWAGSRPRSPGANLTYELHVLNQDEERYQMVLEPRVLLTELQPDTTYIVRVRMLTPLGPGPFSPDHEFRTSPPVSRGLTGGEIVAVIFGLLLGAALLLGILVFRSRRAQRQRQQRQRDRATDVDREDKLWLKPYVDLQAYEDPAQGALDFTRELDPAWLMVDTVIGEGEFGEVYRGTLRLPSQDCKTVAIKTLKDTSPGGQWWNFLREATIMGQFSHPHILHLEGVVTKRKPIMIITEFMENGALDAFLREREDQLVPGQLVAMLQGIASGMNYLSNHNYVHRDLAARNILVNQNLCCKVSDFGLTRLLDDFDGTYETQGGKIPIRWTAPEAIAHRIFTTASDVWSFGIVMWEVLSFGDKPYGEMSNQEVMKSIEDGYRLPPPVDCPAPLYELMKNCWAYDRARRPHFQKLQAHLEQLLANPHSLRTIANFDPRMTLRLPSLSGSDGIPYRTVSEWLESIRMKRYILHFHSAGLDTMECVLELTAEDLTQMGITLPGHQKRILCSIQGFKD
The procedure:
as §1, §2

The next test addresses T10, BRAF (Homo sapiens, UniProt P15056).
T10 construct: purchased Ambit Biosciences (KINOMEscan)
The procedure: as §1, §2

Structures are written as SMILES. Like-named read-outs stand apart in the source and are kept apart here.

T3 sequence (Q08345 19-913): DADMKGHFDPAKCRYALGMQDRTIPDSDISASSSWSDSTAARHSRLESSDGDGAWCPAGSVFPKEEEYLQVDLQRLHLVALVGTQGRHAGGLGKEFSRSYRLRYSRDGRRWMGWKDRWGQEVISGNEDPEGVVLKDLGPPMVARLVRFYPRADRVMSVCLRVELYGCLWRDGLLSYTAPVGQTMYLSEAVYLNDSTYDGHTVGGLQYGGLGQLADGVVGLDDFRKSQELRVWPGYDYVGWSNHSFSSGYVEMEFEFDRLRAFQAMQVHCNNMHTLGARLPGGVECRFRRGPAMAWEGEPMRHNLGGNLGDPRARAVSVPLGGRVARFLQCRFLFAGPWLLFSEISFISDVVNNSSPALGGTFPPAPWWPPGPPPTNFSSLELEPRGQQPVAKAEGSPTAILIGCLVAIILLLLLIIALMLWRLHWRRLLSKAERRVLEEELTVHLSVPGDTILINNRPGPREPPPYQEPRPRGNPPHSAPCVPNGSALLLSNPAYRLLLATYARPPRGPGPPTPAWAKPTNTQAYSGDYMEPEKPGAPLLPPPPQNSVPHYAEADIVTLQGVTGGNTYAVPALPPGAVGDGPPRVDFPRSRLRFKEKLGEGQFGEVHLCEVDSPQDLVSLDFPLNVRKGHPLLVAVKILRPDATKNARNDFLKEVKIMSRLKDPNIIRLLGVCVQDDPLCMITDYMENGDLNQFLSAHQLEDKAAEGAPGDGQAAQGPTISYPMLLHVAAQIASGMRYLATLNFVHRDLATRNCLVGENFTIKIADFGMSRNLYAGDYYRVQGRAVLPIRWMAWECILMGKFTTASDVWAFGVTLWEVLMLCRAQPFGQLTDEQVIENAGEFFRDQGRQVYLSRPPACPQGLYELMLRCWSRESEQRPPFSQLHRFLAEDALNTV
T4 sequence (Q9NY57 whole entry): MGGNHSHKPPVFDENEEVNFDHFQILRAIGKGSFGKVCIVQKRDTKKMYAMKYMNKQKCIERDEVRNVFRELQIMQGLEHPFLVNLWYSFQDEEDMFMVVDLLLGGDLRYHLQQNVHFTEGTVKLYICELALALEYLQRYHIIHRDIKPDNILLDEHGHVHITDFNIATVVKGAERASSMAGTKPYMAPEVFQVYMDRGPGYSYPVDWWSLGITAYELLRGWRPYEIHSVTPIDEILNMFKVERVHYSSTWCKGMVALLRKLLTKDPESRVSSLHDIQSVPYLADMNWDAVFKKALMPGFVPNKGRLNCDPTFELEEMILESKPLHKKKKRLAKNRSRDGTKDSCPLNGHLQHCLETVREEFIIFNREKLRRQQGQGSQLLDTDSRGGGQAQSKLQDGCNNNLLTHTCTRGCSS
T1 sequence (O96013 whole entry): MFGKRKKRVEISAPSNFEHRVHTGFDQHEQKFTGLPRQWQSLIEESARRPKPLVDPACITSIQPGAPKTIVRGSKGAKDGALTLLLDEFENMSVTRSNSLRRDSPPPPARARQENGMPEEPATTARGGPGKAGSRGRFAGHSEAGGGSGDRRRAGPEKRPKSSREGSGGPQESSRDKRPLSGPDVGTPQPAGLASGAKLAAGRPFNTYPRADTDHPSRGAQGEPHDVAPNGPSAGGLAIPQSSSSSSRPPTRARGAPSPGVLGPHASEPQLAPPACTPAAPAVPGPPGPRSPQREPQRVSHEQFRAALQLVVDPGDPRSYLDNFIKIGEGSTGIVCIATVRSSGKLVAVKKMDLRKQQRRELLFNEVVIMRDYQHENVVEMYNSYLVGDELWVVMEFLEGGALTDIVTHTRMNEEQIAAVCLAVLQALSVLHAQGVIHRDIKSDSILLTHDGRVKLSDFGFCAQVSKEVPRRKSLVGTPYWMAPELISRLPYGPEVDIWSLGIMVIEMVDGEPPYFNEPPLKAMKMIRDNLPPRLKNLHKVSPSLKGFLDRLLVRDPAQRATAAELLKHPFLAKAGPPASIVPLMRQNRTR
T7 sequence (P41240 whole entry): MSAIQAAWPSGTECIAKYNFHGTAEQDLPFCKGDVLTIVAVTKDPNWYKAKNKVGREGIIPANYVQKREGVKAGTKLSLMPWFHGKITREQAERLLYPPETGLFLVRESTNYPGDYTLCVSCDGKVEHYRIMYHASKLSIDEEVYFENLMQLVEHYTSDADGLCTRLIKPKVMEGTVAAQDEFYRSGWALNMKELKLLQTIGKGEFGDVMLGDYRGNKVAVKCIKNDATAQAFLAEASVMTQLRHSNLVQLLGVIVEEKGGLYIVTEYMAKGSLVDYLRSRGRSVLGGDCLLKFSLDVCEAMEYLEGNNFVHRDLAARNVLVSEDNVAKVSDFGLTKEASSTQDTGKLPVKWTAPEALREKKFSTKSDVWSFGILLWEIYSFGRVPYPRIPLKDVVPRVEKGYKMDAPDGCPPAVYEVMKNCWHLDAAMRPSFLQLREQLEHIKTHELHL
T5 sequence (P27361 whole entry): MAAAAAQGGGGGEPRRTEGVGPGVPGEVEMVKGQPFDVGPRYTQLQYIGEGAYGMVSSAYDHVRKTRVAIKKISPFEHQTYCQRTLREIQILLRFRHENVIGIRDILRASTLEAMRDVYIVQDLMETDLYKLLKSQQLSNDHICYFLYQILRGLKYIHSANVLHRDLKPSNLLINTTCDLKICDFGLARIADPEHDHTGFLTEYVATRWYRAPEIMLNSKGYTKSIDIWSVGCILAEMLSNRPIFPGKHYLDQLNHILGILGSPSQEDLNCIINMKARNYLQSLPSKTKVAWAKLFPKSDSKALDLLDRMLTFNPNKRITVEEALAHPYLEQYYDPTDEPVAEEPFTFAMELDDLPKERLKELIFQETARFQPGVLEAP
T6 sequence (P15056 whole entry V600E): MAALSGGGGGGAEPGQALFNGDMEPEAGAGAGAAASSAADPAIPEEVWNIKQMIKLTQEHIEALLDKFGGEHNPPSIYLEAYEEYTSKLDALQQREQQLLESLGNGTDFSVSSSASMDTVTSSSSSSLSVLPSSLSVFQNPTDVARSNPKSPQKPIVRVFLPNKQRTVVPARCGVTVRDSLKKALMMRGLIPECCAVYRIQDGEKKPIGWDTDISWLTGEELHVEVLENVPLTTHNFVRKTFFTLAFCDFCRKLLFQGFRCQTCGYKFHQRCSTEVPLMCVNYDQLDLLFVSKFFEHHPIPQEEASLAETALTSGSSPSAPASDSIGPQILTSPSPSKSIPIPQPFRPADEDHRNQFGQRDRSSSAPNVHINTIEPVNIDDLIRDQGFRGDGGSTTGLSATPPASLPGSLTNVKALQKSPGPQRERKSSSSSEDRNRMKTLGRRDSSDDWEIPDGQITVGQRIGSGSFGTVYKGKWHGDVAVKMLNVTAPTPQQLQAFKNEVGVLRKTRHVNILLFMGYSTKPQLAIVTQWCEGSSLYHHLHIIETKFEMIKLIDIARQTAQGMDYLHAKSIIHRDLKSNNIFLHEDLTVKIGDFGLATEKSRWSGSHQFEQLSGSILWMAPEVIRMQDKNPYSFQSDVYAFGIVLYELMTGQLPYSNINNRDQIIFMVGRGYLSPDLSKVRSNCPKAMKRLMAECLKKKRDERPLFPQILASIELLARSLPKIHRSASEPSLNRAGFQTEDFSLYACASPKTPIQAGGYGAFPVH
T10 sequence (P15056 whole entry): as the sequence (P15056 whole entry V600E) above, with E600V counted along it
T8 sequence (P37173 23-567): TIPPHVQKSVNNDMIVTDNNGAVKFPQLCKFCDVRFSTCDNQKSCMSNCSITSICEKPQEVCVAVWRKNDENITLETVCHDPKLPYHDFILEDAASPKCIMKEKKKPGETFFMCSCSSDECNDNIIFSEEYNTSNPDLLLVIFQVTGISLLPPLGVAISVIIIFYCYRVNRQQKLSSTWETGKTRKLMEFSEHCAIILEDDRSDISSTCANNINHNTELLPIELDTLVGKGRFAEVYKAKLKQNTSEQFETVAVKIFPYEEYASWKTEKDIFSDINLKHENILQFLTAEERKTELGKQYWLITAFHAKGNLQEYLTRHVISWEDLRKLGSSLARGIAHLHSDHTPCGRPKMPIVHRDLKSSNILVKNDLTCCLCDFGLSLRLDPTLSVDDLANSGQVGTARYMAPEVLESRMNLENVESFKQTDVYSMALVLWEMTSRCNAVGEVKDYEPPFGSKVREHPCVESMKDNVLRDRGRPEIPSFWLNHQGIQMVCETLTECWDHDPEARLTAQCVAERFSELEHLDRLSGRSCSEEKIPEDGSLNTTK

`Fc1ccc(-c2c(-c3ccncc3)[nH]c3nccnc23)cc1` [Compound 122]: the inhibition at 10 µM at PAK4 (PAK4, 10 µM, read-out: % Competition) came to 82%; at GAK (GAK, 10 µM, read-out: % Competition), 98%; at DDR1 (DDR1, 10 µM, read-out: % Competition), 100%; at YANK2 (YANK2, 10 µM, read-out: % Competition) it was 89%; at ERK1 (ERK1, 10 µM, read-out: % Competition), 80%; at BRAF(V600E) (BRAF(V600E), 10 µM, read-out: % Competition), 97%. The inhibition at 10 µM on TGFBR2 (TGFBR2, 10 µM, read-out: % Competition) turned out to be 98%; on EPHA1 (EPHA1, 10 µM, read-out: % Competition), 81%; on BRAF (BRAF, 10 µM, read-out: % Competition), 97%. In addition, the “% Competition” value at CSK was 71%.

Consider `Fc1ccc(-c2c(-c3ccncc3)[nH]c3nccnc23)cc1` [RO1155697-000-005], for which the inhibition at 10 µM on PAK4 (PAK4, compound concentration 10 uM, read-out: Percent Competition) stood at 82%; on GAK (GAK, compound concentration 10 uM, read-out: Percent Competition), 98%; on DDR1 (DDR1, compound concentration 10 uM, read-out: Percent Competition), 100%; at YANK2 (YANK2, compound concentration 10 uM, read-out: Percent Competition), 89%; at ERK1 (ERK1, compound concentration 10 uM, read-out: Percent Competition), 80%; on BRAF(V600E) (BRAF(V600E), compound concentration 10 uM, read-out: Percent Competition), 97%. Moreover, the inhibition at 10 µM at TGFBR2 (TGFBR2, compound concentration 10 uM, read-out: Percent Competition) was 98%; on EPHA1 (EPHA1, compound concentration 10 uM, read-out: Percent Competition), 81%; on BRAF (BRAF, compound concentration 10 uM, read-out: Percent Competition) it was 97%. The “Percent Competition” value on CSK (compound concentration 10 uM) worked out at 71%.

Turning to `CC(O)CNc1cc(-c2[nH]c3cccnc3c2-c2ccc(F)cc2)ccn1` (stereo not drawn) [Compound 140], the inhibition at 10 µM at PAK4 (read-out: % Competition) is less than 50%; on GAK (read-out: % Competition), 98%; at DDR1 (read-out: % Competition) it was 98%; at YANK2 (read-out: % Competition), less than 50%; at ERK1 (read-out: % Competition) it was less than 50%; at BRAF(V600E) (read-out: % Competition), 78%. Further, the values for the inhibition at 10 µM on TGFBR2 (read-out: % Competition), on EPHA1 (read-out: % Competition) and at BRAF (read-out: % Competition) were less than 50%, less than 50% and 76%, respectively. Also, the “% Competition” value at CSK was less than 50%.
